Assay results taken from patent US7064120B2, “Tricyclic pyridyl carboxamides and derivatives thereof tocolytic oxytocin receptor antagonists” (Wyeth, priority 2001, dated 2006).

These molecules were tested against T1, human vasopressin V2 receptor subtype (Homo sapiens, UniProt P30518) (assay: Vasopressin binding in CHO cell membranes expressing human vasopressin V2 subtype receptors ([3H]arginine vasopressin radioligand binding)). Settings: 100 nM.
T1 construct: host or cells: CHO cells, stably transfected (pZeoSV vector)
Experimental: Vasopressin Binding in Chinese Hamster Ovary Cell Membranes Expressing Human Vasopressin V2 Subtype Receptors
Chinese Hamster Ovary (CHO) cells stably transfected with the human V2 subtype receptors were obtained from M. Thibonnier, Case Western Reserve University School of Medicine, Cleveland, Ohio.
The trypsin is removed by aspiration and the cells dislodged by tapping. Cell Culture medium (e.g. 30 mL for 1:30 split) is immediately added and mixed well to inactivate trypsin. 1 mL of detached cells is added to new culture flasks containing fresh Cell Culture medium (e.g. into 25 mL per T-150 flask), and mixed gently. The cells are incubated at 37° C. in 5% CO2. The medium is changed at 3 to 4 day interval (or as appropriate). […] All steps are done under sterile conditions.
The cells are washed twice gently with Hank's Balanced Salt solution (e.g. use 10 mL per T-150 flask). […] The contents are transferred to centrifuge tubes (50 mL) kept in ice bath. All subsequent steps are done at 4° C. The tubes are centrifuged at 300×g for 15 min (1380 rpm on SORVAL, Model RT6000D, using the rotor for 50 mL tubes). The supernatant is discarded and the cells suspended in homogenizing buffer(10 mM Tris-HCl containing 0.25 M sucrose and 1 mM EDTA, pH 7.4) ensuring that the volume of the buffer is about ten times the volume of the cell pellet. The cells are pooled into a centrifuge tube (50 mL) and homogenized with Polytron at setting 6 for 10 sec. The homogenate is transferred into a Potter-Elvjehm homogenizer and homogenized with 3 strokes. The homogenate is centrifuged at 1500×g for 60 min at 4° C. (3100 rpm using SORVAL, model RT6000D, using the rotor for 50 mL tubes). The pellet is discarded. The supernatant is centrifuged at 100,000×g for 60 min. at 4° C. (Beckman L8-80M ultracentrifuge; spin at 37,500 rpm with rotor type 70 Ti for 50 mL tubes; 38,000 rpm with type 80Ti for 15 mL tubes; or 35,800 rpm with rotor type 45Ti). The supernantant is discarded and the pellet suspended in 3 to 4 mL of Tris buffer (50 mM TRIS-HCl, pH 7.4). The protein content is estimated by the Bradford or Lowry method. The volume of the membrane suspension is adjusted with the membrane buffer (50 mM Tris-HCl containing 0.1% BSA and 0.1 mM PMSF) to give 3.0 mg/mL (or as appropriate) of protein. The membranes are aliquoted and stored at −70° C.
In wells of a 96-well format microtiter plate, is added 90, 110 or 130 μL (to make up a final volume of 200 μL) of assay buffer containing 50 mM of Tris-HCl (pH 7.4), […], 1 mg % aprotinin, 1 mg % leupeptin, 2 mg % 1,10-phenanthroline, 10 mg % trypsin inhibitor, and 0.1 mM PMSF. The inhibitors are added on the day of the experiment. The components are mixed at room temperature, and then kept in ice bath following adjustment of the pH to 7.4. […] For vasopressin and other peptide ligands 20 μL of 50% DMSO is added and the assay buffer volume is adjusted accordingly. To each well is added 50 μL of frozen membrane suspension thawed immediately prior to use and diluted in assay buffer to the required concentration (equivalent to 25 to 50 μg of protein/well as needed). 20 μL of 8 nM [^3H]arginine vasopressin ligand in the assay buffer, prepared just before use is added and incubated at room temperature for 60 min. shaking the plate on a mechanical shaker for the first 15 min. The incubation is stopped by rapid filtration of the plate contents followed by wash with ice-cold buffer (50 mM Tris-HCl, pH 7.4) using a cell harvester (Tomtek and Printed filtermat-B filter paper). The filter paper is thoroughly dried (7–12 min. in a microwave oven) and impregnated with MeltiLex B/H melt-on scintillation wax sheets and the radioactivity counted in a betaplate scintillation counter.
Binding data is either reported as percent inhibition at a certain concentration or if an IC50 was calculated, as a nanomolar concentration.

T1 sequence (P30518 whole entry): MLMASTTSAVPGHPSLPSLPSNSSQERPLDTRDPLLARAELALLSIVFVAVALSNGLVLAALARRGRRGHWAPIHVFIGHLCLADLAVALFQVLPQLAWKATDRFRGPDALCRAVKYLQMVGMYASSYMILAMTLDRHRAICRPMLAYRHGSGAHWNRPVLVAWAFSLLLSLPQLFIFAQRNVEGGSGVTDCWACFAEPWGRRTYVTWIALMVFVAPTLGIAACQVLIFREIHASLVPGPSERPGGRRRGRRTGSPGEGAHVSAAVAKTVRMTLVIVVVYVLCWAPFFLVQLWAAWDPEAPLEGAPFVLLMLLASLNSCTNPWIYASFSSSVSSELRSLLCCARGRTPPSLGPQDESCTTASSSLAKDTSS

Compound	inhibition at 0.1 µM
COc1cc(C(=O)N2Cc3ccc(C(=O)N(C)CCc4ccncc4)n3Cc3ccccc32)ccc1-c1cccc2ccccc12 [Example 134, 10-[3-Methoxy-4-(naphthalen-1-yl)benzoyl]-N-methyl-N-[2-(4-pyridinyl)ethyl]-10,11-dihydro-5H-pyrrolo[2,1-c][1,4]benzodiazepine-3-carboxamide]	1%
COc1ccccc1-c1ccc(C(=O)N2Cc3ccc(C(=O)N4CCN(c5ccncc5)CC4)n3Cc3ccccc32)cc1 [Example 116, {10-[(2′-Methoxy-[1,1′-biphenyl]-4-yl)carbonyl]-10,11-dihydro-5H-pyrrolo[2,1-c][1,4]benzodiazepin-3-yl}[4-(4-pyridinyl)-1-piperazinyl]methanone]	63%
COc1cccc(-c2ccc(C(=O)N3Cc4ccc(C(=O)N5CCN(c6ccncc6)CC5)n4Cc4ccccc43)cc2OC)c1 [Example 123, {10-[(2,3′-Dimethoxy-[1,1′-biphenyl]-4-yl)carbonyl]-10,11-dihydro-5H-pyrrolo[2,1-c][1,4]benzodiazepin-3-yl}[4-(4-pyridinyl)-1-piperazinyl]methanone]	30%
COc1cc(-c2ccccc2C)c(Cl)cc1C(=O)N1Cc2ccc(C(=O)NCc3ccccn3)n2Cc2ccccc21 [Example 29, 10-[(6-Chloro-3-methoxy-2′-methyl-[1,1′-biphenyl]-4-yl)carbonyl]-N-(2-pyridinylmethyl)-10,11-dihydro-5H-pyrrolo[2,1-c][1,4]benzodiazepine-3-carboxamide]	12%
COc1ccccc1-c1ccc(C(=O)N2Cc3ccc(C(=O)N4CCCCC4c4cccnc4)n3Cc3ccccc32)cc1C (stereo not shown) [Example 138, {10-[(2′-Methoxy-2-methyl-[1,1′-biphenyl]-4-yl)carbonyl]-10,11-dihydro-5H-pyrrolo[2,1-c][1,4]benzodiazepin-3-yl}[2-(3-pyridinyl)-1-piperidinyl]methanone]	42%
CN(CCc1ccncc1)C(=O)c1ccc2n1Cc1ccccc1N(C(=O)c1ccc(-c3cccc4ccccc34)cc1Cl)C2 [Example 136, 10-[2-Chloro-4-(naphthalen-1-yl)benzoyl]-N-methyl-N-[2-(4-pyridinyl)ethyl]-10,11-dihydro-5H-pyrrolo[2,1-c][1,4]benzodiazepine-3-carboxamide]	19%
Cc1cc(C(=O)N2Cc3ccc(C(=O)N4CCCCC4c4cccnc4)n3Cc3ccccc32)ccc1-c1ccccc1C(F)(F)F (stereo not shown) [Example 142, (10-{[2-Methyl-2′-trifluoromethyl-[1,1′-biphenyl]-4-yl]carbonyl}-10,11-dihydro-5H-pyrrolo[2,1-c][1,4]benzodiazepin-3-yl)[2-(3-pyridinyl)-1-piperidinyl]methanone]	16%
COc1cccc(-c2ccc(C(=O)N3Cc4ccc(C(=O)N(C)CCc5ccncc5)n4Cc4ccccc43)cc2C)c1 [Example 128, 10-[(3′-Methoxy-2-methyl-[1,1′-biphenyl]-4-yl)carbonyl]-N-methyl-N-[2-(4-pyridinyl)ethyl]-10,11-dihydro-5H-pyrrolo[2,1-c][1,4]benzodiazepine-3-carboxamide]	10%
COc1cc(C(=O)N2Cc3ccc(C(=O)N(C)CCc4ccccn4)n3Cc3ccccc32)ccc1-n1c(C)ccc1C [Example 144, 10-[4-(2,5-Dimethyl-1H-pyrrol-1-yl)-3-methoxybenzoyl]-N-methyl-N-[2-(pyridin-2-yl)ethyl]-10,11-dihydro-5H-pyrrolo[2,1-c][1,4]benzodiazepine-3-carboxamide]	2%
Cc1ccccc1-c1ccc(C(=O)N2Cc3ccc(C(=O)NCc4ccccn4)n3Cc3ccccc32)cc1 [Example 27, 10-[(2′-Methyl-[1,1′-biphenyl]-4-yl)carbonyl]-N-(2-pyridinylmethyl)-10,11-dihydro-5H-pyrrolo[2,1-c][1,4]benzodiazepine-3-carboxamide]	16%

More lines, now with the values ahead:

inhibition at 0.1 µM	Compound
26%	COc1ccccc1-c1ccc(C(=O)N2Cc3ccc(C(=O)NCc4ccccn4)n3Cc3ccccc32)cc1C [Example 24, 10-[(2′-Methoxy-2-methyl-[1,1′-biphenyl]-4-yl)carbonyl]-N-(2-pyridinylmethyl)-10,11-dihydro-5H-pyrrolo[2,1-c][1,4]benzodiazepine-3-carboxamide]
11%	Cc1cc(C(=O)N2Cc3ccc(C(=O)N(C)CCc4ccncc4)n3Cc3ccccc32)ccc1-c1ccccc1C(F)(F)F [Example 137, N-Methyl-10-{[2-methyl-2′-trifluoromethyl-[1,1′-biphenyl]-4-yl]carbonyl}-N-[2-(4-pyridinyl)ethyl]-10,11-dihydro-5H-pyrrolo[2,1-c][1,4]benzodiazepine-3-carboxamide]
13%	Cc1ccccc1-c1ccc(C(=O)N2Cc3ccc(C(=O)NCCc4ccccn4)n3Cc3ccccc32)cc1 [Example 53, 10-[(2′-Methyl-[1,1′-biphenyl]-4-yl)carbonyl]-N-[2-(2-pyridinyl)ethyl]-10,11-dihydro-5H-pyrrolo[2,1-c][1,4]benzodiazepine-3-carboxamide]
31%	COc1cc(C(=O)N2Cc3ccc(C(=O)NCc4ccccn4)n3Cc3ccccc32)ccc1-c1cccc2ccccc12 [Example 31, 10-[3-Methoxy-4-(naphthalen-1-yl)benzoyl]-N-(2-pyridinylmethyl)-10,11-dihydro-5H-pyrrolo[2,1-c][1,4]benzodiazepine-3-carboxamide]
4%	COc1cccc(-c2ccc(C(=O)N3Cc4ccc(C(=O)NCCc5ccccn5)n4Cc4ccccc43)cc2OC)c1 [Example 59, 10-[(2,3′-Dimethoxy-[1,1′-biphenyl]-4-yl)carbonyl]-N-[2-(2-pyridinyl)ethyl]-10,11-dihydro-5H-pyrrolo[2,1-c][1,4]benzodiazepine-3-carboxamide]
8%	COc1ccccc1-c1ccc(C(=O)N2Cc3ccc(C(=O)NCCc4ccccn4)n3Cc3ccccc32)cc1 [Example 52, 10-[(2′-Methoxy-[1,1′-biphenyl]-4-yl)carbonyl]-N-[2-(2-pyridinyl)ethyl]-10,11-dihydro-5H-pyrrolo[2,1-c][1,4]benzodiazepine-3-carboxamide]
16%	COc1cccc(-c2ccc(C(=O)N3Cc4ccc(C(=O)NCCc5ccccn5)n4Cc4ccccc43)cc2C)c1 [Example 51, 10-[(3′-Methoxy-2-methyl-[1,1′-biphenyl]-4-yl)carbonyl]-N-[2-(2-pyridinyl)ethyl]-10,11-dihydro-5H-pyrrolo[2,1-c][1,4]benzodiazepine-3-carboxamide]
28%	COc1ccccc1-c1ccc(C(=O)N2Cc3ccc(C(=O)N(C)CCc4ccncc4)n3Cc3ccccc32)cc1 [Example 129, 10-[(2′-Methoxy-[1,1′-biphenyl]-4-yl)carbonyl]-N-methyl-N-[2-(4-pyridinyl)ethyl]-10,11-dihydro-5H-pyrrolo[2,1-c][1,4]benzodiazepine-3-carboxamide]
18%	COc1cc(C(=O)N2Cc3ccc(C(=O)NCCc4ccccn4)n3Cc3ccccc32)ccc1-c1ccccc1C [Example 54, 10-[(2-Methoxy-2′-methyl-[1,1′-biphenyl]-4-yl)carbonyl]-N-[2-(2-pyridinyl)ethyl]-10,11-dihydro-5H-pyrrolo[2,1-c][1,4]benzodiazepine-3-carboxamide]
